Laboratory results: US9428732B2, “Compositions and methods for differentiating pluripotent stem cells into primitive blood cells and uses thereof” (Primorigen Biosciences, Inc., priority 2011, dated 2016)

Tests used:
Format in all cases: cell-based, human
[1] = tested on: iPS-derived hematopoietic progenitors and phenotypic HSCs; test: Differentiation into lymphocytes on OP9 and OP9delta feeder lines, FACS; details: cells generated from iPS cells with DEAB at 10 uM; 14 to 21 days
Method: The differentiation cultures were trypsinized at the indicated time points and single-cell suspensions were generated following trypsinization. For the Colony Forming Unit (CFU) assays using methyl cellulose cultures, 25% of the cells were plated in 2 ml of MethoCult H4435 (STEMCELL Technologies, Vancouver, BC) in six-well plates. Alternatively, sorted CD45+, CD43+, CD34+, 7AAD-cells were sorted and plated at 500 cells per 2 ml Methocult media. Cells were incubated for 14 days in a humidified incubator at 37° C. with 5% CO2 and evaluated for colonies by bright-field microscopy (Zeiss (Oberkochen, Germany, www.zeiss.com) Axiovert 200 with a Zeiss Axiocam), Cells were resuspended in PBS supplemented with 2% FBS. For the lymphoid myeloid differentiation assays, either CD45+, CD43+, CD34+, 7AAD-hematopoietic progenitors, or CD45+, CD43+, CD34+, CD38−, CD90+, CD45RA− phenotypic HSCs were plated at 20-40 cells per well onto OP9 and OP9delta feeder lines for B-cell and T-cell differentiation, respectively, as previously described (Nozad Charoudeh H, Tang Y, Cheng M, Cilio C M, Jacobsen S E, Sitnicka E., Identification of an NK/T cell-restricted progenitor in adult bone marrow contributing to bone marrow- and thymic-dependent NK cell, Blood, 2010 Jul. 15; 116(2):183-92. NK cell differentiation as well as myeloid cell differentiation was also detected in this differentiation system. […]

[2] = tested on: pluripotent stem cell differentiation cultures; test: Beating cardiomyocyte colonies in differentiation cultures; details: cultures using DEAB; data not shown
Text: Within the mesoderm lineage we then quantified the expression of markers of the paraxial (FOXC1) and lateral plate (FOXF1, hematopoietic and cardiac precursor) mesoderm. […] This is likely the result of anterior lateral plate mesoderm formation (precursors of the heart). We saw a dramatic upregulation of the cardiogenic mesoderm marker NKX2.5 in the DMSO control at this time point (FIG. 6G, Day 12 onward).

[3] = tested on: pluripotent stem cell differentiation cultures; test: Quantitative gene expression analysis during differentiation (Day 0, 4, 8, 12, 15); details: for expression of SCL: FIG. 6M; for expression of FOXF1: FIG. 6E; for expression of FOXC1: FIG. 6F
Text: RNA from the pluripotent stem cell differentiation cultures was harvested at multiple time points corresponding to stages of development from pluripotent stem cells to hematopoietic lineages during in vitro culture. Cells were lysed using Trizol (Life Technologies, Carlsbad Calif.), and RNA was isolated according to the manufacturer's specifications. A cDNA library was reverse transcribed by the High Capacity RNA-to-cDNA Kit from Applied Biosystems (Life Technologies, Carlsbad, Calif.). PCR products were amplified for 40 cycles using primers designed for the gene of interest.
Gene expression studies were carried out to determine expression of key genes for the major divergences in the pathway from iPS to HSC. Briefly, RNA from the differentiation cultures was harvested at multiple time points (Day 0, 4, 8, 12, 15), corresponding to stages of development during in vitro culture and differentiation of pluripotent stem cells to hematopoietic lineages using Differentiation Medium 1. Cells were lysed using Trizol (Life Technologies, Carlsbad Calif.) and RNA was isolated according to manufacturer's specifications. A cDNA library was reverse transcribed using the RNA-to-cDNA Kit from Applied Biosystems (Life Technologies, Carlscad, Calif.). PCR products were amplified using appropriate primers designed for the genes of interest for 40 cycles.
To understand how RA-signaling inhibition with DEAB may lead to increased output of the most primitive blood cells (phenotypic HSCs: CD45+, CD43+, CD34+, CD38−, CD90+, CD45RA−) from pluripotent stem cells without an increase in the total blood (mature cells and progenitors), we performed quantitative gene expression analyses for key development markers at various time points during the differentiation protocol. As the developmental marker genes we surveyed are not known to be direct targets of RA signaling, we can expect the marker gene expression levels to correlate to the cell numbers in culture.

[4] = DEAB vs DMSO, early time points

**Q.** How did the “ability of generated HSCs to differentiate into lymphoid cells (B, NK, T)” value [1] turn out when `CCN(CC)c1ccc(C=O)cc1` [DEAB, 4-diethylaminobenzaldehyde] was run?
**A.** capable of differentiating to each type of tested lymphocyte

**Q.** And the “numbers of beating cardiomyocytes colonies” value [2]?
**A.** significantly reduced numbers

**Q.** What about the “expression of SCL” value ([3]; DEAB compared to DMSO, Day 15) of the same compound?
**A.** increased SCL expression

**Q.** What about the “expression of SCL” value ([3]; DEAB vs DMSO, Day 8-12) of the same compound?
**A.** Increased SCL expression with DMSO compared to DEAB

**Q.** And the “expression of FOXF1” value ([3]; DEAB vs DMSO, Day 8 onward)?
**A.** comparable

**Q.** What about the “expression of RUNX1 (definitive hematopoietic cell marker)” value ([3]; DEAB vs DMSO, Day 12-15, FIG. 6I) of the same compound?
**A.** increased expression

**Q.** And the “expression of cardiogenic lateral plate mesoderm marker NKX2.5” value ([3]; DEAB vs DMSO, Day 12 onward, FIG. 6G)?
**A.** reduced expression

**Q.** What about the “expression of FOXC1” value ([3]; DEAB vs DMSO, Days 6-12) of the same compound?
**A.** significantly reduced

**Q.** And the “increase in expression of primitive streak mesoderm marker MIXL1” value ([3]; DEAB vs DMSO, FIG. 6C)?
**A.** 20%

**Q.** What about the “expression of endoderm specific marker SOX17” value ([3]; DEAB vs DMSO, FIG. 6D) of the same compound?
**A.** significantly reduced

**Q.** What about the “CD31 expression (primitive wave endothelial cells)” value ([3]; DEAB vs DMSO, FIG. 6L) of the same compound?
**A.** reduced

**Q.** And the “expression of ectoderm and neuroectoderm marker PAX6” value ([3]; DEAB vs DMSO, early time point, FIG. 6A)?
**A.** reduced expression

**Q.** And the “expression of FOXF1” value [3, 4]?
**A.** elevated levels

**Q.** What about the “expression of FOXC1” value [3, 4] of the same compound?
**A.** elevated levels

**Q.** And the “expression of mesoderm marker Brachyury” value ([3]; DEAB vs DMSO, first days of differentiation, FIG. 6B)?
**A.** significantly increased

**Q.** What about the “expression of PAX6” value ([3]; DEAB vs DMSO, later time points, FIG. 6A) of the same compound?
**A.** later equalized

**Q.** And the “expression of FLK1” value ([3]; DEAB, Day 4)?
**A.** high levels

**Q.** And the “expression of RARa” value ([3]; DEAB, Day 8, FIG. 6N)?
**A.** reduced levels

**Q.** What about the “expression of RARb” value ([3]; DEAB, Day 8, FIG. 6O) of the same compound?
**A.** reduced levels

**Q.** And the “expression of APLNR” value ([3]; DEAB, Day 12, FIG. 6H)?
**A.** expressed highly

**Q.** And the “expression of PDGFRA” value ([3]; DEAB, Day 12, FIG. 6J)?
**A.** downregulated

**Q.** And the “expression of FLK1” value ([3]; DEAB, Days 12-15)?
**A.** increased

**Q.** What about the “expression of RA target CD38 by PCR” value ([3]; DEAB, FIG. 6P) of the same compound?
**A.** reduction
